In PubChem BioAssay (NCI):
Several values for one entry are separate records, joined by “and”; a condition that tells them apart may be missing. Equal values may be shown once.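 Briefly, cells in 96-well plates were exposed to five compound concentrations for 48 h, and endpoints were estimated by linear interpolation. GI50 marks 50% less growth. TGI marks complete inhibition of growth.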

Tests used:
Assay in all cases: NCI anticancer screen, dose series, 48 h
786-0 renal = tested on: 786-0 renal
A498 renal = tested on: A498 renal
A549 NSCLC = tested on: A549 NSCLC
ACHN renal = tested on: ACHN renal
CAKI-1 renal = tested on: CAKI-1 renal
CCRF-CEM leukemia = tested on: CCRF-CEM leukemia
COLO 205 colon = tested on: COLO 205 colon
DLD-1 colon = tested on: DLD-1 colon
DMS 114 small cell lung = tested on: DMS 114 small cell lung
DMS 273 small cell lung = tested on: DMS 273 small cell lung
EKVX NSCLC = tested on: EKVX NSCLC
HCC-2998 colon = tested on: HCC-2998 colon
HL-60(TB) leukemia = tested on: HL-60(TB) leukemia
HOP-62 NSCLC = tested on: HOP-62 NSCLC
HT29 colon = tested on: HT29 colon
IGROV1 ovarian = tested on: IGROV1 ovarian
K-562 leukemia = tested on: K-562 leukemia
KM12 colon = tested on: KM12 colon
KM20L2 colon = tested on: KM20L2 colon
LXFL 529 NSCLC = tested on: LXFL 529 NSCLC
M14 melanoma = tested on: M14 melanoma
M19-MEL melanoma = tested on: M19-MEL melanoma
MOLT-4 leukemia = tested on: MOLT-4 leukemia
NCI-H23 lung = tested on: NCI-H23 lung
NCI-H460 lung = tested on: NCI-H460 lung
NCI-H522 lung = tested on: NCI-H522 lung
OVCAR-3 ovarian = tested on: OVCAR-3 ovarian
OVCAR-4 ovarian = tested on: OVCAR-4 ovarian
OVCAR-5 ovarian = tested on: OVCAR-5 ovarian
OVCAR-8 ovarian = tested on: OVCAR-8 ovarian
RXF 393 renal = tested on: RXF 393 renal
RXF-631 renal = tested on: RXF-631 renal
SF-268 CNS = tested on: SF-268 CNS
SF-295 CNS = tested on: SF-295 CNS
SF-539 CNS = tested on: SF-539 CNS
SK-MEL-2 melanoma = tested on: SK-MEL-2 melanoma
SK-MEL-28 melanoma = tested on: SK-MEL-28 melanoma
SK-MEL-5 melanoma = tested on: SK-MEL-5 melanoma
SK-OV-3 ovarian = tested on: SK-OV-3 ovarian
SN12C renal = tested on: SN12C renal
SNB-75 CNS = tested on: SNB-75 CNS
SNB-78 CNS = tested on: SNB-78 CNS
SR leukemia = tested on: SR leukemia
SW-620 colon = tested on: SW-620 colon
TK-10 renal = tested on: TK-10 renal
U251 CNS = tested on: U251 CNS
UACC-257 melanoma = tested on: UACC-257 melanoma
UACC-62 melanoma = tested on: UACC-62 melanoma
UO-31 renal = tested on: UO-31 renal
XF 498 CNS = tested on: XF 498 CNS

COc1ccc(-c2oc3c(OC)c(OC)c(OC)c(O)c3c(=O)c2OC)cc1O
GI50 (786-0 renal): < 10 nM | TGI (786-0 renal): 11.3 µM | TGI (A498 renal): 5.93 µM | GI50 (A549 NSCLC): < 10 nM | TGI (A549 NSCLC): 12.3 µM | GI50 (ACHN renal): 159 nM | TGI (ACHN renal): > 100 µM | GI50 (CAKI-1 renal): < 10 nM | TGI (CAKI-1 renal): > 100 µM | TGI (CCRF-CEM leukemia): 11.4 µM | TGI (COLO 205 colon): 23.5 µM | GI50 (DLD-1 colon): 67.4 nM | TGI (DLD-1 colon): > 100 µM | TGI (DMS 114 small cell lung): 78.4 nM | TGI (DMS 273 small cell lung): 16.3 µM | GI50 (EKVX NSCLC): 317 nM | TGI (EKVX NSCLC): > 100 µM | TGI (HCC-2998 colon): 8.64 µM | TGI (HL-60(TB) leukemia): < 10 nM | GI50 (HOP-62 NSCLC): 47.8 nM | TGI (HOP-62 NSCLC): 877 nM and 4750 nM | TGI (HT29 colon): 36.8 µM | GI50 (IGROV1 ovarian): 35.8 nM | TGI (IGROV1 ovarian): 52.1 µM | TGI (K-562 leukemia): 13.5 µM | GI50 (KM12 colon): 638 nM | TGI (KM12 colon): 10.3 µM | TGI (KM20L2 colon): 26.1 µM | GI50 (LXFL 529 NSCLC): < 10 nM | TGI (LXFL 529 NSCLC): > 100 µM | GI50 (M14 melanoma): < 10 nM | GI50 (M19-MEL melanoma): < 10 nM | TGI (M19-MEL melanoma): 31.8 µM | TGI (MOLT-4 leukemia): 12.7 µM | GI50 (NCI-H23 lung): < 10 nM | GI50 (NCI-H460 lung): < 10 nM | TGI (NCI-H460 lung): 138 nM | TGI (NCI-H522 lung): < 10 nM | GI50 (OVCAR-3 ovarian): < 10 nM | TGI (OVCAR-4 ovarian): > 100 µM | TGI (OVCAR-5 ovarian): > 100 µM | GI50 (OVCAR-8 ovarian): < 10 nM | TGI (OVCAR-8 ovarian): > 100 µM | TGI (RXF 393 renal): 504 nM | TGI (RXF-631 renal): 35.8 µM | GI50 (SF-268 CNS): < 10 nM | TGI (SF-268 CNS): 2820 nM | TGI (SF-295 CNS): 21.2 µM | TGI (SF-539 CNS): 101 nM | TGI (SK-MEL-2 melanoma): 221 nM | TGI (SK-MEL-28 melanoma): > 100 µM | GI50 (SK-MEL-5 melanoma): < 10 nM | TGI (SK-MEL-5 melanoma): 995 nM | GI50 (SK-OV-3 ovarian): < 10 nM | TGI (SK-OV-3 ovarian): 783 nM and 419 nM | GI50 (SN12C renal): < 10 nM | TGI (SN12C renal): > 100 µM | GI50 (SNB-75 CNS): < 10 nM | TGI (SNB-75 CNS): < 10 nM | GI50 (SNB-78 CNS): < 10 nM | TGI (SNB-78 CNS): > 100 µM | GI50 (SR leukemia): < 10 nM | TGI (SR leukemia): 112 nM | GI50 (SW-620 colon): < 10 nM | TGI (SW-620 colon): > 100 µM | TGI (TK-10 renal): 51 µM | GI50 (U251 CNS): < 10 nM | TGI (U251 CNS): 898 nM and 230 nM | GI50 (UACC-257 melanoma): < 10 nM | TGI (UACC-257 melanoma): > 100 µM | GI50 (UACC-62 melanoma): < 10 nM | TGI (UACC-62 melanoma): 19.8 µM | GI50 (UO-31 renal): < 10 nM | TGI (UO-31 renal): 5.81 µM | TGI (XF 498 CNS): 680 nM
